Test results taken from publication PMC10064330, “Reversible Dual-Covalent Molecular Locking of the 14-3-3/ERRγ Protein–Protein Interaction as a Molecular Glue Drug Discovery Approach” (Journal of the American Chemical Society, 2023).

Columns and labels:
[1] = target: T1, 14-3-3γ/ERRγ complex (Homo sapiens, UniProt P61981+P62508); test: Time-dependent fluorescence anisotropy (TD-FA) of ternary complex formation; assay type: binding
T1 construct: made in house; host or cells: E. coli NiCo21 (DE3)
Description: Time-dependent fluorescence anisotropy (TD-FA) measurements provided insights in the kinetics of ternary complex (14-3-3/ERRγ/lock) formation (Figures S2 and S3). All fragments reached saturation by ∼12 h. […] Carboxamides 4–6 and 8–10 reached saturation within 5 h.
TD-FA experiments were also performed at different pH values to study ternary complex (14-3-3γ/ERRγ/compound) formation and the importance of the imine bond in the molecular lock (Figure 3b,c and Figures S14–S16). […] Similarly, the avidity of the 14-3-3/ERRγ/1 complex at equilibrium was not affected by pH (Figure 3b). In contrast, 5 and 10 elicited an inverse relationship between pH and KD^app (Figure 3c and Figure S14), connected to impaired imine bond formation at low pH.
In contrast, the formation of the ternary complexes of 14-3-3γ/ERRγ/compound with 1, 5, and 10 was time-dependent and pH-responsive (Figure 3b,c and Figures S15 and S16). […] At pH 6.5, the kinetics of disulfide bond formation was 50% slower. For instance, at pH 6.5, the maximum effect of 1 was reached after a 4.2 h incubation, compared to 1.7–0.8 h for pH 7.0–8.0 (Figure S16g). […] Effective disulfide formation thus appeared to aid in the imine bond formation of the dual-covalent locks. Combining the two reactive handles increased the effective molar concentration of the lock within the binding pocket, illustrating the need for dual reactivity and leading to enhanced 14-3-3/ERRγ avidity.
Figure S2. Time resolved fluorescence anisotropy screen. Time dependent results of 14-3-3γ titration to 10 nM fluorescein-labelled ERRγ peptide in presence of 100 µM compound 1-10 (or DMSO as negative control).
Fluorescence anisotropy was measured every 15 minutes for the first 2 hours after which it was measured every hour for 15 hours. The plate was measured one more time after 24 hours incubation.
(1 picture or pasted object on this page, not shown here)
Figure S3. Time-dependent FA-based apparent Kd analysis. Determined apparent K from fluorescence […]
anisotropy binding curves (see figure S1) and plotted over time (top row) for all compounds in this study to show a time dependent decrease in KD (increase in affinity) between 14-3-3γ and ERRγ as induced by the compounds.
Bottom graphs show the normalized version of the top graphs where the KD at t=0h was set to no effect (0%) and […]
Figure S16. Time- and pH dependent FA-based apparent K analysis. (a-c) Determined apparent K from […]
fluorescence anisotropy binding curves (see figure S15) and plotted over time for compounds 1, 5 and 10. Results show a time dependent decrease in KD (increase in affinity) between 14-3-3γ and ERRγ as induced by the compounds over time. […]
(§1) temperatures are based on three independent experiments from which the average and standard deviations were determined using excel. […]

[2] = target: T1, 14-3-3γ/ERRγ complex; test: Peptide washout experiment on immobilized 14-3-3γ/ERRγ complex; assay type: binding; conditions: 100 μM compound; for total recovered ERRγ peptide: 5 washing steps of 20 min, normalized to recovery without 14-3-3γ; for initial peptide recovery: first washing step (DMSO 63%)
Description: Next, a washout experiment was performed to understand ternary 14-3-3/ERRγ/molecular lock complex dissociation. Fluorescein-labeled ERRγ was incubated overnight with biotin-functionalized 14-3-3γ in the presence of either DMSO, disulfide 1, aldehyde 3, or molecular lock 5 and subsequently immobilized on streptavidin-functionalized magnetic beads (Figure S17a). The beads were then washed five times in a peptide and compound-free buffer. During each wash step, the beads were incubated in the buffer for 20 min to allow dissociation of the ERRγ peptide from the immobilized 14-3-3γ. The fluorescence was then measured for all samples before capture, after capture, and after each washing step (Figure S17b), and the amount of peptide recovery was calculated. […] The analysis of individual washing steps provided further insight into the ternary complex dissociation kinetics (Figure 3e).
Figure S17. Washout experiment. (a) Schematic representation of washout experiment. Biotinylated 14-3-3γ (5 µM), fluorescein-labelled ERRγ 9-mer peptide (200 nM) and dual-reactive molecular lock 5 were preincubated overnight to form a ternary ‘crosslinked’ complex. This complex was immobilized on streptavidin-functionalized magnetic beads. Complex-functionalized beads were subsequently washed […] with 50 µL buffer. For each wash step, the complex was incubated 20 minutes in the buffer before removal to allow dissociation of the ERRγ peptide from the ternary complex. From samples before and after capturing, and from all wash fractions, we have measured the fluorescence to determine the amount of ERR γ peptide in each fraction. (b) Fluorescence signal of fluorescein-labelled ERRγ peptide after washout experiment. Samples are present for FAM - ERRγ incubated with and without biotinylated 14 -3-3γ and in presence of either DMSO (negative control), disulfide compound 1, aldehyde compound 3 or dual-reactive compound 5. Fluorescence was measured from samples before and after capturing and from all wash fractions. (c) % recovery of FAM -ERRγ in each wash fraction of washout experiment. Percentage is obtained by dividing the fluorescence of each sample (see panel a) by the fluorescence signal obtained before capturing (input sample = 100% , see panel a). […]
steps in presence of DMSO, or 100 µM compound 1, 3 or 5. Values are calculated by dividing the fluorescence signal (from panel a) of samples with 14-3-3 with the fluorescence signal of samples without 14-3-3, to correct for non-specific binding of peptide to the magnetic beads. […]
as §1

T1 sequence (P61981 whole entry, other chains not shown): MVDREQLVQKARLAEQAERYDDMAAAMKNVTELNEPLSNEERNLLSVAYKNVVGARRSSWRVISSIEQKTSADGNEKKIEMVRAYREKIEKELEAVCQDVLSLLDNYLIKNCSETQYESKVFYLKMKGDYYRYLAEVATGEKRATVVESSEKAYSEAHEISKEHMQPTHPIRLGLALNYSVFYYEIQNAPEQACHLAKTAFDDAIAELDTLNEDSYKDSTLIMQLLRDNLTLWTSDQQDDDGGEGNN

SMILES | binding kinetics ([1]; 100 μM compound, TD-FA) | incubation time to reach maximum effect ([1]; pH 6.5, 100 μM compound) | total recovered ERRγ peptide [2] | initial peptide recovery [2] | time to saturation of ternary complex formation ([1]; 100 μM compound, TD-FA)
CN(C)CCSSCCN(C)C(=O)c1cccc(F)c1 [compound 1, reference compound] | significantly slower binding kinetics than molecular locks 4–10 | 4.2 h | 58% | 42% | 
CN(C)CCSSCCN(C)C(=O)c1ccc(C=O)c(F)c1 [compound 5] | fastest reaction kinetics |  | 44% | 36% | 2 h
